Experiment: molar heat capacity at saturation pressure; xn = mol fraction of the nth substance listed

CCCCn1cc[n+](C)c1.Cc1ccc(S(=O)(=O)[O-])cc1 [1-butyl-3-methylimidazolium tosylate] + O
Conditions | molar heat capacity [J/K/mol]
294.67 K, Crystal, x1 = 0.3 | 204.91
294.68 K, Crystal, x1 = 0.83 | 580.85
294.91 K, Crystal, x1 = 0.37 | 561.1
295.64 K, Crystal, x1 = 0.37 | 590.88
295.82 K, Liquid, x1 = 0.3 | 198.57
296.25 K, Crystal, x1 = 0.83 | 574.07
296.33 K, Crystal, x1 = 0.37 | 593.15
296.53 K, Metastable crystal, x1 = 0.83 | 425.47
296.97 K, Liquid, x1 = 0.3 | 199.1
297.06 K, Crystal, x1 = 0.37 | 577.63
297.82 K, Crystal, x1 = 0.37 | 542.42
297.88 K, Crystal, x1 = 0.83 | 481.52
298.13 K, Liquid, x1 = 0.3 | 199.52
298.45 K, Metastable crystal, x1 = 0.83 | 435.64
298.66 K, Crystal, x1 = 0.37 | 429.59
299.28 K, Liquid, x1 = 0.3 | 199.84
299.67 K, Crystal, x1 = 0.83 | 439.03
299.68 K, Crystal, x1 = 0.37 | 268.68
300.26 K, Metastable crystal, x1 = 0.83 | 440.59
301.01 K, Liquid, x1 = 0.3 | 200.58
301.5 K, Crystal, x1 = 0.83 | 445.81
301.5 K, Liquid, x1 = 0.37 | 233.85
302.51 K, Metastable crystal, x1 = 0.83 | 454.93
303.31 K, Crystal, x1 = 0.83 | 454.15
303.34 K, Liquid, x1 = 0.3 | 201.21
304 K, Liquid, x1 = 0.37 | 232.59
305.11 K, Crystal, x1 = 0.83 | 462.49
305.64 K, Liquid, x1 = 0.3 | 201.95
306.39 K, Metastable crystal, x1 = 0.83 | 484.39
306.5 K, Liquid, x1 = 0.37 | 233.6
306.89 K, Crystal, x1 = 0.83 | 471.88
307.94 K, Liquid, x1 = 0.3 | 202.8
308.65 K, Crystal, x1 = 0.83 | 484.39
309 K, Liquid, x1 = 0.37 | 234.48
309.82 K, Metastable crystal, x1 = 0.83 | 516.2
310.24 K, Liquid, x1 = 0.3 | 203.54
310.39 K, Crystal, x1 = 0.83 | 497.69
311.5 K, Liquid, x1 = 0.37 | 235.37
312.09 K, Crystal, x1 = 0.83 | 512.81
312.54 K, Liquid, x1 = 0.3 | 204.38
313.06 K, Metastable crystal, x1 = 0.83 | 550.87
313.75 K, Crystal, x1 = 0.83 | 529.23
313.99 K, Liquid, x1 = 0.37 | 236.25
314.83 K, Liquid, x1 = 0.3 | 205.13
315.4 K, Crystal, x1 = 0.83 | 549.31
316.18 K, Metastable crystal, x1 = 0.83 | 596.49
316.49 K, Liquid, x1 = 0.37 | 237.13
317.02 K, Crystal, x1 = 0.83 | 571.21
317.13 K, Liquid, x1 = 0.3 | 205.87
318.6 K, Crystal, x1 = 0.83 | 596.23
318.98 K, Liquid, x1 = 0.37 | 238.14
319.16 K, Metastable crystal, x1 = 0.83 | 653.33
319.42 K, Liquid, x1 = 0.3 | 206.82
320.13 K, Crystal, x1 = 0.83 | 624.39
321.47 K, Liquid, x1 = 0.37 | 239.03
321.62 K, Crystal, x1 = 0.83 | 655.93
321.7 K, Liquid, x1 = 0.3 | 207.45
321.99 K, Metastable crystal, x1 = 0.83 | 719.81
323.06 K, Crystal, x1 = 0.83 | 690.35
323.96 K, Liquid, x1 = 0.37 | 239.91
323.99 K, Liquid, x1 = 0.3 | 208.19
324.46 K, Crystal, x1 = 0.83 | 727.63
324.62 K, Metastable crystal, x1 = 0.83 | 811.31
325.81 K, Crystal, x1 = 0.83 | 774.82
326.27 K, Liquid, x1 = 0.3 | 209.04
326.44 K, Liquid, x1 = 0.37 | 240.92
327.04 K, Metastable crystal, x1 = 0.83 | 934.11
327.1 K, Crystal, x1 = 0.83 | 828.52
328.33 K, Crystal, x1 = 0.83 | 892.65
328.55 K, Liquid, x1 = 0.3 | 209.99
328.93 K, Liquid, x1 = 0.37 | 241.8
329.23 K, Metastable crystal, x1 = 0.83 | 1093.4
329.5 K, Crystal, x1 = 0.83 | 965.13
330.61 K, Crystal, x1 = 0.83 | 1053
330.82 K, Liquid, x1 = 0.3 | 210.94
331.17 K, Metastable crystal, x1 = 0.83 | 1295.7
331.41 K, Liquid, x1 = 0.37 | 242.69
331.64 K, Crystal, x1 = 0.83 | 1141.9
332.6 K, Crystal, x1 = 0.83 | 1224.8
332.82 K, Metastable crystal, x1 = 0.83 | 1513.7
333.09 K, Liquid, x1 = 0.3 | 212.21
333.26 K, Crystal, x1 = 0.83 | 1386.4
333.89 K, Liquid, x1 = 0.37 | 243.57
334.14 K, Crystal, x1 = 0.83 | 1617.9
334.32 K, Metastable crystal, x1 = 0.83 | 1881.5
335.19 K, Crystal, x1 = 0.83 | 1296.5
335.35 K, Liquid, x1 = 0.3 | 213.8
336.19 K, Crystal, x1 = 0.83 | 1133.3
336.37 K, Liquid, x1 = 0.37 | 244.45
336.41 K, Metastable crystal, x1 = 0.83 | 678.36
337.35 K, Crystal, x1 = 0.83 | 711.99
337.61 K, Liquid, x1 = 0.3 | 215.06
338.19 K, Crystal, x1 = 0.83 | 480.74
338.85 K, Liquid, x1 = 0.37 | 245.21
339.63 K, Liquid, x1 = 0.83 | 464.32
339.88 K, Liquid, x1 = 0.3 | 213.58
340.02 K, Liquid, x1 = 0.83 | 459.1
341.32 K, Liquid, x1 = 0.37 | 246.09
341.87 K, Liquid, x1 = 0.83 | 460.41
342.14 K, Liquid, x1 = 0.3 | 213.58
342.82 K, Liquid, x1 = 0.83 | 461.71
343.71 K, Liquid, x1 = 0.83 | 461.71
343.8 K, Liquid, x1 = 0.37 | 246.98
344.41 K, Liquid, x1 = 0.3 | 214.32
345.56 K, Liquid, x1 = 0.83 | 462.75
345.93 K, Liquid, x1 = 0.83 | 463.79
346.27 K, Liquid, x1 = 0.37 | 247.86
346.67 K, Liquid, x1 = 0.3 | 214.96
347.4 K, Liquid, x1 = 0.83 | 464.06
348.75 K, Liquid, x1 = 0.37 | 248.62
348.93 K, Liquid, x1 = 0.3 | 215.7
349.04 K, Liquid, x1 = 0.83 | 465.88
349.25 K, Liquid, x1 = 0.83 | 465.36
351.1 K, Liquid, x1 = 0.83 | 466.66
351.19 K, Liquid, x1 = 0.3 | 216.44
351.22 K, Liquid, x1 = 0.37 | 249.38
352.16 K, Liquid, x1 = 0.83 | 467.97
352.94 K, Liquid, x1 = 0.83 | 467.71
353.44 K, Liquid, x1 = 0.3 | 217.07
353.69 K, Liquid, x1 = 0.37 | 250.51
354.79 K, Liquid, x1 = 0.83 | 469.01
355.28 K, Liquid, x1 = 0.83 | 469.79
355.69 K, Liquid, x1 = 0.3 | 217.81
356.16 K, Liquid, x1 = 0.37 | 251.4
356.63 K, Liquid, x1 = 0.83 | 470.31
357.94 K, Liquid, x1 = 0.3 | 218.55
358.39 K, Liquid, x1 = 0.83 | 471.88
358.47 K, Liquid, x1 = 0.83 | 471.62
358.63 K, Liquid, x1 = 0.37 | 252.4
360.18 K, Liquid, x1 = 0.3 | 219.19
360.31 K, Liquid, x1 = 0.83 | 472.92
361.09 K, Liquid, x1 = 0.37 | 253.04
361.5 K, Liquid, x1 = 0.83 | 473.7
362.15 K, Liquid, x1 = 0.83 | 474.22
362.42 K, Liquid, x1 = 0.3 | 219.82
363.55 K, Liquid, x1 = 0.37 | 253.92
363.99 K, Liquid, x1 = 0.83 | 475.27
364.61 K, Liquid, x1 = 0.83 | 475.79
364.66 K, Liquid, x1 = 0.3 | 220.25
365.82 K, Liquid, x1 = 0.83 | 476.31
366 K, Liquid, x1 = 0.37 | 254.68
366.89 K, Liquid, x1 = 0.3 | 221.09
367.72 K, Liquid, x1 = 0.83 | 477.87
368.46 K, Liquid, x1 = 0.37 | 255.69

From the NIST ThermoML archive (doi:10.1021/je700152c)
